The structures appear in SMILES notation. Like-named read-outs stand apart in the source and are kept apart here.

The values that follow come from US12636368B2, “Ionizable lipids for nucleic acid delivery” (Global Life Sciences Solutions Canada ULC, priority 2019, dated 2026).

Data set [1] in a line: TNS assay, surface pKa of lipid nanoparticles. Format: physicochemical. The procedure: In embodiments of the invention, the experimental pKa of formulated lipid nanoparticles comprising lipids in Table 1 is calculated using the 2-(p-toluidinyl)naphthalene-6-sulfonic acid (TNS) assay. The procedure for the TNS assay is described in Example 25.
The pKa of each cationic lipid was determined in lipid nanoparticles using an assay based on fluorescence of 6-(p-Toluidino)-2-naphthalenesulfonic acid sodium salt (TNS, Sigma Aldrich), which is a fluorescent probe for the conformational state of proteins5. Empty lipid nanoparticles comprising ionizable lipid in LM02 composition in distilled water at a concentration of 3.125 mM total lipid are formulated using NanoAssemblr® Spark™, and were then was characterized for LNP quality on the Zetasizer™ using a 30× dilution with 1×PBS in the low volume cuvette. Lipid nanoparticles were further diluted 4× using distilled water to 0.781 mM total lipid. TNS was prepared as a 25 μM stock solution in distilled water. Then 6.4 μL of diluted LNP samples of 0.781 mM total lipid were mixed with 10 μL of diluted TNS to a final volume of 250 μL with buffer containing 10 mM HEPES, 10 mM MES, 10 mM NH4OAc and 130 mM NaCl where the pH ranged from 3 to 9 in 0.5 pH increments.
Samples were mixed thoroughly, and the fluorescence intensity was measured at room temperature in a BioTek™ Synergy™ H1 Hybrid Multi-Mode Monochromator™ Fluorescence Microplate Reader using excitation and emission wavelengths of 321 nm and 445 nm respectively. A sigmoidal best fit analysis was applied to the fluorescence data using GraphPad Prism™ software, and the pKa was measured as the pH at half-maximal fluorescence intensity.

Data set [2] can be described thus: Nucleic acid encapsulation efficiency by RiboGreen assay. Format: physicochemical. Here is the method:
Messenger RNA or plasmid NAT was diluted using sodium acetate buffer to the required concentration. Lipid nucleic acid particle samples were then prepared by running both fluids using the NanoAssemblr® Spark instrument. […] The lipid nucleic acid particles made in the instrument were immediately diluted down with 48 μL Ca and Mg free 1×PBS at pH 7.4 in the aqueous output well. These nucleic acid lipid particles were immediately collected into microcentrifuge tubes containing 96 μL of Ca and Mg free 1×PBS at pH 7.4. Encapsulation efficiency was measured by a modified Ribogreen™ assay (Quanti-iT RiboGreen™ RNA assay kit, Fisher). Observed particle attributes were generally sized from 60-200 nm for mRNA, depending on lipid composition and method of production.
(§1) Physical characteristics of lipid nanoparticle (LNP) compositions comprising compounds according to Formula (I) and that were manufactured on the NanoAssemblr® Spark and Benchtop, are shown in Tables 6 and 7 below. Size, size variation of the LNP (PDI), encapsulation efficiency, and pKa are shown. The physical characteristics of these LNP are important from a standpoint of stability, biodistribution, and cell membrane crossing. There was good encapsulation in all the formulations, with polydispersity (PDI) under 0.3. Size and PDI were measured using dynamic light scattering techniques, and nucleic acid encapsulation efficiency was calculated from a modified Quant-iT RiboGreen RNA assay.

The test system of data set [3] is C57BL/6 mice. Description: OVA mRNA LNP intramuscular immunization, anti OVA-IgG ELISA. The settings on record: i.m., days 1 and 10. In kind it is in vivo. An excerpt: LNP with the composition LM02b were used to encapsulate OVA antigen encoded CleanCap® OVA WT mRNA [TriLink L7610] or CleanCap® OVA 5-moU mRNA [TriLink L7210]. A lipid mixture of Ionizable lipid, DOPE, Cholesterol, and PEG-DMG2000, all in ethanol, was mixed with a low PH buffered solution of OVA mRNA at an N/P ratio of 8 using a NanoAssemblr® Ignite™ microfluidic mixer. The LNP were filtered using the Amicon™ ultra filtration technique and characterized for Size, PDI and Encapsulation Efficiency. Size and PDI were measured using dynamic light scattering techniques, and nucleic acid encapsulation efficiency was calculated from the Quant-iT RiboGreen RNA assay. […]
All animals were handled according to the Institutional Animal Care and Use Committee ethics protocols. […] Aliquots of serum samples were thawed and analyzed at appropriate dilutions for OVA expression and for IgG measurements using standard ELISA techniques.
Anti OVA-IgG ELISA of serum samples: Sera from the immunized mice were collected at 2 weeks post second immunization. OVA-specific production of IgG in response to OVA-encoded mRNA in various LNPs were measured by ELISA as described supra. […] After 30 minutes of incubation, a stop solution of 2 N sulphuric acid was added and a plate reader was used to determine absorbance at 450 nm. […]
(In an ELISA, binding on a coated surface is turned into a signal by an enzyme label.)

Data set [4] is described as follows: LNP size and PDI by dynamic light scattering. Format: physicochemical. Here is the method:
After the lipid particles were made as described supra, particle size (hydrodynamic diameter of the particles) was determined by Dynamic Light Scattering (DLS) using a ZetaSizer™ Nano ZS™ (Malvern Instruments, UK). He/Ne laser tuned to 633 nm wavelength was used as the light source. Data were measured from the scattered intensity data conducted in backscattering detection mode (measurement angle=173). Measurements were an average of 10 runs of two cycles each per sample. Z-Average size was reported as the particle size, and is defined as the harmonic intensity averaged particle diameter.
as §1

The subject of data set [5] is primary human T cells. Description: EPO ELISA after EPO mRNA LNP treatment of primary human T cells. Format: cell-based. The settings on record: Table 5; for EPO concentration (mIU/mL): EPO mRNA LNPs, 2 pg mRNA per 500,000 cells, N/P 10, 48 hours. The procedure: Reagents were acquired from Quantikine, Minneapolis, MN. The assay was performed as directed on the Quantikine® IVD® ELISA Human Erythropoietin Immunoassay protocol. REF DEP00 Package Insert. Briefly; primary human T cells were isolated from fresh whole blood using a negative selection protocol and activated using a triple activator. Seven days post-activation, T cells were dosed with mRNA LNPs encoding EPO at 2 pg mRNA per 500,000 cells and N/P 10. Quantikine® Human Serum Controls were used. After 48 hours of treatment with mRNA LNPs the T cells were harvested and lysed for cytosolic EPO and media supernatant was sampled for secreted EPO. Table 5 includes the data of FIG. 6 as well as the fold increase of EPO for PNI 76 and 121 versus MC3.

Data set [6] deals with isolated primary human T cells. Description: GFP mRNA-LNP transfection of primary human T cells, flow cytometry. In kind it is cell-based. The procedure:
Reagents were from Stemcell Technologies unless otherwise stated. Tcells were isolated from a single donor. At 48 h following lipid particle mRNA exposure, the treated T cells were harvested by transferring the cell suspensions to pre-labeled 1.5 mL tubes and centrifuged 300×g at 4 degrees C. for 10 minutes. Supernatant was removed and the pellet resuspended in PBS. An amount of 0.5 ul of BD Horizon™ Fixable Viability Stain 575V™ (BD Biosciences), was added, and the mixture incubated in the dark for 10 minutes at RT. This stain binds to amines.
The cells were centrifuged again as before, then washed twice with 1 mL of stain buffer (BSA, BD Pharminigen), and the washed pellet was diluted in 100 μl BSA. The following antibodies were added to each tube of treated cells in 2 μl volumes: CD25, CD8, CD4, (PerCP-Cy™ 5.5 Mouse Anti Human CD25, BV786 Mouse Anti-Human CD8 Clone RPA-T8, APC-Cy™7 Mouse Anti-Human CD4 Clone SK3 (all from BD Pharmingen) with the exception of the controls: in the eGFP only sample and viability control, no antibody was added. In the single stain compensation tubes, only one antibody per tube was added.
The tubes were incubated at 4 degrees C. for 30 min, whereupon […] of stain buffer was added, and the cells were centrifuged again. Cells were washed once with 1 mL of stain buffer and spun down again as in step one. Cell pellets were resuspended in 1 mL of stain buffer and added to pre-labeled flow tubes with cell strainer caps (Corning Falcon). […]
GFP MFI was measured by flow cytometry 48 hours after LNP addition. T cells were isolated from whole blood using a negative isolation procedure (EasySep™ Human T Cell Isolation Kit, Stemcell Technologies). T cells were dosed with mRNA-LNPs 3 days after activation with 500 ng of encapsulated mRNA per 125,000 cells. The LNP were CT10 compositions with an N/P of 8. Transfection efficiency (upper graph) and MFI (lower graph) were measured by flow cytometry 48 h after LNP addition.
In general terms: In flow cytometry, cells or beads pass a laser one at a time.

The test system of data set [7] is human T cells. Description: eGFP ELISA after eGFP mRNA LNP treatment of human T cells. Format: cell-based. As to conditions: Table 4. The procedure:
Reagents were acquired from Abcam, Cambridge, UK unless otherwise stated. […] The assay was performed as directed by the eGFP SimpleStep ELISA® Kit protocol. Briefly; frozen human T cells, previously isolated from fresh human whole blood using a negative selection protocol, were thawed and activated using a triple activator. […] After 48 hours of treatment with mRNA LNPs the T cells were harvested and lysed for total eGFP content.
In order to expose the isolated and activated T cells (Day 0) to the formulated mRNA, 2 ug of CleanCap™ eGFP (Trilink Biotechnologies, San Diego, CA) mRNA-containing LNP was added to 500,000 T cells in 1 mL of complete T cell media, with 1 ug/mL of Recombinant Human ApoE4 (“ApoE”) (Peprotech Inc., Montreal, Canada).
Frozen human T cells, previously isolated from fresh human whole blood using a negative selection protocol, were thawed and activated using a triple activator. At 10 days post-activation, T cells were dosed with CT10 mRNA LNPs LNP comprising DLin-MC3-DMA, PNI 76, PNI 119, PNI 120, PNI 121, and PNI 122 encoding eGFP at 2 pg mRNA per 500,000 cells and N/P 10. Protein expression was measured after 48 hours by eGFP ELISA.

[8] abbreviates: Table 1, formulated lipid nanoparticles, TNS assay, read-out: Exp. pKa.
The mark [9] stands for this setting: Table 6, GFP-encoded LNPs, CT10, N/P 8.
Setting [10] is: Table 7, EPO mRNA LNPs, LM02, N/P 6.

The pKa is the pH at which an ionisable group is half protonated. As to `CCCCC/C=C\C/C=C\CCCCCCCC(=O)O[C@@H]1[C@@H](OC(=O)CCCCCCC/C=C\C/C=C\CCCCC)CO[C@@H]1COC(=O)C1CCN(C)CC1` (racemic) [PNI 325], the pKa in data set [1] (setting [8]) was 6.45; in data set [1] (Table 8, read-out: Exp.pKa) it was 6.45. For the same compound, the “Encapsulation Efficiency (%)” value in data set [2] (setting [9]) worked out at 51.1%; in data set [2] (setting [10]), 95.9%. In addition, the “immune response to OVA antigen loaded LNPs” value in data set [3] was “effectively elicit an immune response similar to OVA antigen”. Also, the “Diameter (Z. ave, nm)” value in data set [4] (setting [9]) was determined as 121.5 nm; in data set [4] (setting [10]) it was 65.3 nm. For the same compound, the figures for the “Polydispersity Index (PDI)” value in data set [4] (setting [9]) and in data set [4] (setting [10]) were 0.39 and 0.09, respectively.
Regarding `CCCCC/C=C\C/C=C\CCCCCCCCC(CCCCCCCC/C=C\C/C=C\CCCCC)OC(=O)CCCN(C)C` [MC3, DLin-MC3-DMA, reference compound], in data set [5], the “EPO Fold Change Relative to MC3” value is given as 1.0 and the “EPO concentration (mIU/mL)” value came to 545.2 mIU/mL. Also, in data set [1] (Table 5), the “pKa Exp.” value is 5.99. Besides, in data set [2] (setting [9]), the “Encapsulation Efficiency (%)” value was found to be 88.6%. Also, the “Encapsulation Efficiency (%)” value in data set [2] (setting [10]) came out at 98.8%. Moreover, in data set [4] (setting [9]), the “Diameter (Z. ave, nm)” value came to 77.2 nm and the “Polydispersity Index (PDI)” value is on record as 0.11. Further, in data set [4] (setting [10]), the “Diameter (Z. ave, nm)” value is on record as 65.1 nm and the “Polydispersity Index (PDI)” value was determined as 0.04.
With `CCCCCCCCCCCCCC(=O)O[C@H]1COC([C@@H](COC(=O)CCCN(C)C)OC(=O)CCCCCCCCCCCCC)[C@@H]1OC(=O)CCCCCCCCCCCCC` (stereo partly shown) [PNI 76], the “EPO Fold Change Relative to MC3” value in data set [5] was 0.93. For the same compound, the “EPO concentration (mIU/mL)” value in data set [5] was 507.3 mIU/mL. For the same compound, the “transfection efficiency compared with MC3” value in data set [6] (FIG. 1, eGFP mRNA LNP, CT10, N/P 10, 48 hours after treatment) is reported as “equal transfection efficiency as MC3”. In data set [6] (Table 4, transfection efficiency, eGFP mRNA LNPs, CT10, N/P 8), the “% eGFP +” value turned out to be 62.35%. In addition, the pKa in data set [1] (setting [8]) was 6.42; in data set [1] (Table 4, determined by TNS assay, read-out: pKa Ex.) it was 6.42; in data set [1] (Table 5, read-out: pKa Exp.), 6.42; in data set [1] (Table 8, read-out: Exp.pKa) it was 6.4. For the same compound, the “Encapsulation Efficiency (%)” value in data set [2] (setting [10]) was determined as 88.9%. In addition, the “Fold Change Relative to MC3” value in data set [7] (eGFP (pg) relative to MC3) was found to be 1.095. The “eGFP” value in data set [7] (quantity of expressed eGFP, eGFP mRNA LNPs, CT10) came to 1502.0 pg. Moreover, the “Diameter (Z. ave, nm)” value in data set [4] (setting [10]) came out at 83.1 nm. Also, the “Polydispersity Index (PDI)” value in data set [4] (setting [10]) is 0.16.
